Read-outs that look alike come from different tables or passages of the source.
Tests used:
[1] = Stability in mouse plasma (accelerated, freeze-thaw, frozen PK samples); type: in vitro ADME; conditions: for %-ACC, frozen PK sample stability: mouse plasma PK samples re-extracted after 1.5 years at <−70 °C; for %-ACC (% accuracy vs nominal): 3 freeze-thaw cycles (<−70 °C / bench)
Experimental: For stability testing, QC samples were prepared by spiking plasma with QC stock solutions. These stability samples were stored for the predetermined time periods before extraction (accelerated stability and freeze–thaw stability) or after extraction (autosampler stability) and were run with freshly prepared calibrator standards. For accelerated stability, samples were stored at 4 °C and at room temperature for 4 h and 24 h prior to sample extraction. […] Assay A compounds (GEM-IB and IB) were also tested at 1 h and 2 h exposed to 4 °C and at room temperature to evaluate for which duration GEM-IB is stable.
Freeze–thaw cycle stability was assessed by storing the stability samples overnight in the freezer (<−70 °C) and thawing them the next day on the bench. Once thawed, samples were placed back into the freezer. This was carried out for three freeze–thaw cycles for all compounds.
To assess the stability of study samples, PK samples were re-extracted after storage at <−70 °C for 1.5 years (see Supplementary Table S4).
Method development and validation was conducted following applicable FDA guidelines for bioanalytical assays, as considered fit for purpose. Specificity. Endogenous interferences were excluded by analysis of blank plasma from 6 different individual lots of plasma. The lower limit of quantification (LLOQ) was determined as the lowest concentration consistently achieving an accuracy better than ±20% of the nominal concentration, with imprecision ≤20%. Predefined acceptance criteria. The performance of the assay was considered acceptable if intra- and inter-day imprecision (coefficient of variance, %CV) at each concentration was ≤15%, except at the LLOQ (≤20%). Intra- and inter-day accuracy had to be ±15% of the nominal value, except at the LLOQ (±20%). Calibration curves had to have a correlation coefficient (r) of 0.99 or better. Analytical recovery and imprecision. Intra- and inter-day analytical accuracy and imprecision were tested at least at four concentration levels depending on the LLOQ for each compound. Intra-day imprecision and accuracy were determined with n = 6 per QC level. Inter-day imprecision and accuracy were measured over 3 days, with six replicates for each QC concentration (n = 18). Extraction efficiency and matrix effect. Extraction efficiency for GEM-IB and metabolites was established by comparing the signals of the analytes after the extraction of QCs (n = 6/concentrations), with the signals of the extracted blank matrix spiked with the respective concentrations of analytes after the extraction procedure. The matrix effect was determined by comparing the analyte LC-MS/MS signal after spiking of the analyte into the extracted blank matrix (matrix from 6 different individual lots, analyte concentrations as for the QC samples) with the HPLC-MS/MS signal of the same amount of analyte in neat solution [25]. Carry-over. Carry-over was assessed by injecting blank buffer samples after analysis of the highest calibrators. Carry-over was considered insignificant if there was no signal at the relevant retention times exceeding 20% of the analyte signals at the LLOQ. Stability. QC samples were freshly prepared. One set was extracted and was analyzed immediately to determine baseline signals.

[2] = Proof-of-concept dog PK study, plasma levels of GEM-IB and metabolites by HPLC-MS/MS; type: in vivo, beagle dogs; conditions: for half-life: dog, plasma, 5 mg/kg; for Cmax: analyte = parent or metabolite; for AUC: over the observation period
Experimental: Assay A (GEM-IB and IB): The extraction of calibration standards, quality control samples, and PK study samples was identical. Plasma, quality control stocks, and calibrator stocks were removed from the storage freezer and kept at room temperature until fully thawed. Aliquots of 100 μL of standards/quality control or blank sample were transferred into a 1.5 mL low-binding polypropylene vial with a conical bottom and snap-on lid. An amount of 10 µL of the of the internal standard solution (15 and 10 µg/mL of IB-D3 and ATP-IS, respectively) was added and mixed. For protein precipitation, 50 μL of methanol was added and then samples were vortexed for 10 min. This was followed by centrifugation at 25,000× g for ten minutes at 4 °C (Thermo Scientific MR 23i Centrifuge, Thermo Scientific, Waltham, MA, USA). To remove remaining protein, the supernatant was transferred to 10,000 molecular weight cut off (MWCO) centrifugal filters (800 µL volume, PES 10,000 with 2.0 mL receiver tubes, Analytical Sales and Services, Flanders, NJ, USA) and centrifuged again at 25,000× g for ten minutes at 4 °C. The filtrate was transferred into HPLC vials and placed into the HPLC autosampler maintained at 4 °C.
Assay B (GEMMP, GEM dFdUMP and dFdU): The extraction of calibration standards and quality control samples was identical to that of study samples. An amount of 200 µL of plasma sample was added to a 1.5 mL snap-top Eppendorf tube with 100 µL of protein precipitation solution. The samples were then vortexed for five minutes followed by centrifugation at 25,000× g for ten minutes at 4 °C. Hereafter, supernatants were transferred to 10K Amicon centrifugal filters (Merck-Millipore, Burlington, MA, USA) and centrifuged at the same settings for 60 min. The filtrates were then transferred into HPLC vials for analysis.
Assay A (GEM-IB and IB): Quantification of the analytes was carried out using high-performance liquid chromatography–tandem mass spectrometry (HPLC-MS/MS). Chromatography was performed using an Agilent 1260 Infinity II bio-inert HPLC system (Agilent Technologies, Santa Clara, CA, USA) on a Hypercarb Porous Graphitic Carbon HPLC column (3 µm, 2.1 × 50 mm, Thermo Scientific, Waltham, MA, USA). The HPLC system consisted of an Agilent 1260 Infinity II bio-inert quaternary pump, an Agilent 1260 Infinity II bio-inert column oven, and an Agilent 1260 Infinity II bio-inert autosampler (Agilent Technologies, Santa Clara, CA, USA). An amount of 10 µL of the sample extracts was injected. The column was maintained at 22 °C. HPLC-MS-grade water supplemented with 10 mM hexafluoroisopropanol (HFIP) and 0.05% (v/v) diethyl amine (DEA) at pH 9.4 was used for the aqueous mobile phase (Buffer A) and HPLC-grade acetonitrile was used for the organic mobile phase (Buffer B). The flow rate was set to 400 µL/min throughout the assay. The initial settings were 98% Buffer A and 2% organic Buffer B for the first two minutes. During the following 0.7 min, the organic Buffer B was increased to 30%. At minute 3.5, the gradient reached 98% Buffer B, which was kept for 0.5 min, and at minute 4.2 the column was re-equilibrated to starting conditions for 2.8 min until the next injection. The HPLC system was connected to a Sciex a 5500+ triple quadrupole mass spectrometer (SCIEX, Concord, ON, Canada) via a turbo electrospray ionization source (SCIEX) operated in the negative electrospray ionization (ESI) mode. Data were acquired in negative multiple reaction monitoring (MRM) mode and all compounds were detected as [M–H ]^−. The ion transitions used during the multiple reaction monitoring mode were m/z = 318→236, 321→239, 643→342, and 521→79 for IB, IB-D3, GEM-IB, and adenosine-^13C10,^15N5 5′-triphosphate (^13C10-^15N5-ATP), respectively. The dwell time for analysis was set to 50 ms. The curtain gas was kept at 20 psi and the ion source gas at 55 psi. The ion spray voltage was −4500 volts, and the temperature of the ion source was set to 400 °C. […]

[3] = after GEM-IB 5 mg/kg 30 min i.v. infusion
[4] = beagle, iv, after GEM-IB 5 mg/kg 30 min i.v. infusion, read-out: T1/2 (converted)
[5] = beagle, iv, after GEM-IB 5 mg/kg 30 min i.v. infusion
[6] = mouse plasma, 2 hours 4°C / on ice (IB and GEM-IB, footnote)
[7] = mouse plasma, 2 hours RT (IB and GEM-IB, footnote)
[8] = beagle, iv, after the end of the 30 min i.v. infusion of GEM-IB 5 mg/kg, read-out: half-life

Row | SMILES | %-ACC, frozen PK sample stability [1] | %-ACC (% accuracy vs nominal) ([1]; mouse plasma) [%] | %-ACC (percent mean accuracy vs nominal) ([1]; mouse plasma, 4 hours 4°C) [%] | %-ACC (percent mean accuracy vs nominal) ([1]; mouse plasma, 4 hours RT) [%] | %-ACC (percent mean accuracy vs nominal) ([1]; mouse plasma, 24 hours 4°C) [%] | %-ACC (percent mean accuracy vs nominal) ([1]; mouse plasma, 24 hours RT) [%] | Rate Constant [2, 3] [h⁻¹] | half-life [2, 4] [min] | Tmax [2, 5] [min] | Cmax [2, 5] [ng/mL] | AUC [2, 5] [ng·h/mL] | %-ACC (percent mean accuracy vs nominal) [1, 6] [%] | %-ACC (percent mean accuracy vs nominal) [1, 7] [%] | half-life [2, 8] [min] | further results
1 | Nc1ccn([C@@H]2O[C@H](CO)[C@@H](O)C2(F)F)c(=O)n1 [GEM, gemcitabine] | 94.2% ± 11.8 | 103.4 | 94.5 | 89.3 | 87.9 | 91.0 | 0.5 | 90.7 | 30 | 684 | 1620 |  |  |  | 
2 | Nc1ccn([C@@H]2O[C@H](COP(=O)(O)O)[C@@H](O)C2(F)F)c(=O)n1 [GEMMP, gemcitabine-5′-phosphate] | failed the criteria | 92.4 | 91.9 | 87.9 | 91.4 | 88.1 |  |  | 30 | 224 | 83 |  |  |  | plasma values after the infusion period [2, 3]: below the LLOQ
3 | O=c1ccn([C@@H]2O[C@H](CO)[C@@H](O)C2(F)F)c(=O)[nH]1 [dFdU, 2′,2′-difluoro-2′-deoxyuridine] | failed the criteria | 109.5 | 84.5 | 83.8 | 87.0 | 85.2 | 0.1 | 591 | 270 | 330 | 6570 |  |  |  | 
4 | O=c1ccn([C@@H]2O[C@H](COP(=O)(O)O)[C@@H](O)C2(F)F)c(=O)[nH]1 [dFdUMP, 2′,2′-difluoro-2′-deoxyuridine-5′-phosphate] | failed the criteria | 87.7 | 83.0 | 80.5 | 81.9 | 81.5 | 7.0 | 5.94 | 30 | 23 | 11 |  |  |  | 

The next lines start with results.

Row | %-ACC, frozen PK sample stability [1] | %-ACC (% accuracy vs nominal) ([1]; mouse plasma) [%] | %-ACC (percent mean accuracy vs nominal) ([1]; mouse plasma, 4 hours 4°C) [%] | %-ACC (percent mean accuracy vs nominal) ([1]; mouse plasma, 4 hours RT) [%] | %-ACC (percent mean accuracy vs nominal) ([1]; mouse plasma, 24 hours 4°C) [%] | %-ACC (percent mean accuracy vs nominal) ([1]; mouse plasma, 24 hours RT) [%] | Rate Constant [2, 3] [h⁻¹] | half-life [2, 4] [min] | Tmax [2, 5] [min] | Cmax [2, 5] [ng/mL] | AUC [2, 5] [ng·h/mL] | %-ACC (percent mean accuracy vs nominal) [1, 6] [%] | %-ACC (percent mean accuracy vs nominal) [1, 7] [%] | half-life [2, 8] [min] | SMILES | further results
5 |  | 16.9 |  |  | 2.9 | 0.0 | 50.6 | 0.84 | 30 | 795 | 295 | 64.2 | 31.0 | < 1 | CCCCCN(C)CCC(O)(P(=O)(O)O)P(=O)(O)OP(=O)(O)OC[C@H]1O[C@@H](n2ccc(N)nc2=O)C(F)(F)[C@@H]1O (some centres unmarked) [GEM-IB] | percent of the nominal concentration ([1]; mouse plasma, 1 h on ice): 89.2% ± 7.0; time stable on ice ([1]; mouse plasma, on ice): up to 1 h; clearance [2, 5]: 284 mL/min/kg; Vd ([2]; beagle, iv, after GEM-IB 5 mg/kg 30 min i.v. infusion, read-out: Vdss): 1.93 L/kg
6 |  | 94.5 |  |  | 99.7 | 101.7 | 0.7 | 55.9 | 30 | 4740 | 5720 | 97.0 | 106.4 | 55 | CCCCCN(C)CCC(O)(P(=O)(O)O)P(=O)(O)O [IB, ibandronate] | accelerated stability, result in words ([1]; mouse plasma, up to 24 h at 4 °C / on ice and room temperature): stable; freeze–thaw stability, result in words ([1]; one and two freeze–thaw cycles, matrix not stated, presumably mouse plasma): stable
